As a reminder, the inhibition in vivo is the percentage by which the read-out fell short of the control. What is called ED50 is the dose at which the effect has come halfway, by size or by number of responders. Usually IC50 stands for the concentration needed to halve the response being measured.

Drawing on ChEMBL document CHEMBL1208697 (Bioorg Med Chem Lett, 2010), this text covers inhibition in vivo, ED50 and IC50 for 5 molecules.

Assay [1] deals with Rattus norvegicus. The assay is described as follows: Antiinflammatory activity in rat assessed as inhibition of carrageenan-induced paw edema at 100 mg/kg, po after 3 hrs. Format: functional. (Carrageenan injected into the paw causes an acute inflammation.)
Assay [2] deals with Rattus norvegicus. Put plainly: Antiinflammatory activity in rat assessed as inhibition of carrageenan-induced paw edema after 3 hrs. Format: functional.
Assay [3] has as its target T1, Prostaglandin G/H synthase 1 (Ovis aries, UniProt P05979).
T1 sequence (P05979 whole entry): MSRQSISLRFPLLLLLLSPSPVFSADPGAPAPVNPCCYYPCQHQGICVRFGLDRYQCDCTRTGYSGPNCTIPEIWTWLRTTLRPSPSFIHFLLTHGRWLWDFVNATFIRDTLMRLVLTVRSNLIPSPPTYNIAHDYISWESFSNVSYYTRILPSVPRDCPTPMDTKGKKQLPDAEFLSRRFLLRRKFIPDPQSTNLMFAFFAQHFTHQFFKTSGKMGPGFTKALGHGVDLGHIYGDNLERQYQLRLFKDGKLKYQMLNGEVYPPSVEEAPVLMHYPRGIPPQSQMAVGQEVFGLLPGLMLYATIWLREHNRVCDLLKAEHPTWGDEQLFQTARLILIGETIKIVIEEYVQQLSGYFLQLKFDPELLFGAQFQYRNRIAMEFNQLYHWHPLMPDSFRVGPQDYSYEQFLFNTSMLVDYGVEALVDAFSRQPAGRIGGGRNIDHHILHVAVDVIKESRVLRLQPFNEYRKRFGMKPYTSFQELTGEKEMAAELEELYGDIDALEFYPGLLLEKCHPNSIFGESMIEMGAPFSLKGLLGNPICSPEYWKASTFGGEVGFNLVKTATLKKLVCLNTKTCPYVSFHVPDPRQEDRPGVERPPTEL
Description: Inhibition of sheep COX1 by enzyme immunoassay

Consider `NS(=O)(=O)c1ccc(-n2nc(C(F)(F)F)cc2-c2ccc(/[N+]([O-])=N\O)cc2)cc1`, for which the inhibition in vivo at 100 mg/kg in the assay with Rattus norvegicus [1] worked out at 65.7%. The ED50 in the assay on Rattus norvegicus [2] came to 168 µmol/kg.
Turning to `CO/N=[N+](/[O-])c1ccc(-c2cc(C(F)(F)F)nn2-c2ccc(S(C)(=O)=O)cc2)cc1`, the inhibition in vivo at 100 mg/kg in the assay on Rattus norvegicus [1] was 9.8%. In addition, half-maximal inhibition in assay [3] (IC50) required 10.5 µM.
On to `CO/N=[N+](/[O-])c1ccc(-c2cc(C(F)(F)F)nn2-c2ccc(S(N)(=O)=O)cc2)cc1`, for which the inhibition in vivo at 100 mg/kg in the assay with Rattus norvegicus [1] came out at 47.7%. Besides, the ED50 with Rattus norvegicus [2] came out at 241 µmol/kg. The concentration for half-maximal inhibition (IC50) in assay [3] is 12.1 µM.
In the case of `CC(=O)OC(C)O/N=[N+](/[O-])c1ccc(-c2cc(C(F)(F)F)nn2-c2ccc(S(C)(=O)=O)cc2)cc1` (stereo unspecified), the inhibition in vivo at 100 mg/kg in the assay on Rattus norvegicus [1] was 5.1%. In assay [3], this molecule registered an IC50 of 17 µM.
Taken in the same sequence, the figures for `CC(=O)OC(C)O/N=[N+](/[O-])c1ccc(-c2cc(C(F)(F)F)nn2-c2ccc(S(N)(=O)=O)cc2)cc1` (stereo unspecified) were 18.6% and 11.3 µM.
